This is an account of results in patent publication US6960692B2, “Diaryl sulfide derivative, addition salt thereof, and immunosuppressant” (Kyorin Pharmaceutical Co., Ltd., priority 2001, dated 2005).

The subject of data set [1] is male BALB/c mice. The data set is described as follows: Ability of test compounds to suppress delayed-type hypersensitivity in mice (DNFB, ear thickness). It is filed as in vivo. The conditions noted are these: dose 1 mg/kg orally 30 minutes before DNFB challenge; ear thickness increase 24 hours after the challenge. How it is done:
<Experiment 2> Ability of Test Compounds to Suppress Delayed-Type Hypersensitivity in Mice. […] The sensitization was done for 2 consecutive days (day 0 and day 1). On day 5, the mice were challenged with the antigen to induce delayed-type hypersensitive responses: First, the initial thickness of each ear was measured by the dial thickness gauge G (0.01-10 mm, OZAKI MFG Co., Ltd.) and a test compound was administered. 30 minutes after the administration, 10 μL of a 0.2% (v/v) DNFB solution was applied to the inner and outer surfaces of the right ear of each animal for antigen challenge. The left ear of each animal was challenged with the solvent alone. 24 hours after the challenge, the increase in the ear thickness was measured for each ear and the difference in thickness between the right and the left ears was determined for each individual. The test compound was dissolved, or suspended, in an ultra pure water and was orally administered at a dose of 0.1 mL/10 g of body weight. A control group was administered ultra pure water alone.

Data set [2] concerns male C3H/HeN mice. The data set is described as follows: Ability of test compounds to suppress graft host vs rejection in mice (popliteal lymph node weight). The class given is in vivo. As to conditions: right popliteal lymph node weight 4 days after injection of BALB/c stimulation cells. The text has this:
Ability of Test Compounds to Suppress Graft Host vs Rejection in Mice […] Spleens were collected from 9 to 11 week old male BALB/c mice (CLEA JAPAN Inc., CHARLES RIVER JAPAN Inc., or JAPAN SLC Inc.). The spleens were placed in a phosphate-buffered saline (PBS(-), NISSUI PHARMACEUTICAL Co., Ltd.) or in an RPMI-1640 medium (GIBCO […] Inc., or IWAKI GLASS Co., Ltd.) and were either passed through a stainless steel mesh, or gently pressed between two slide glasses and then passed through a cell strainer (70 μm, Falcon), to form a cell suspension. The suspension was then centrifuged and the supernatant was discarded. An ammonium chloride-Tris isotonic buffer was added to the suspension to lyse erythrocytes. The cells were then centrifuged and washed three times in PBS (-) or RPMI-1640 medium and were resuspended in an RPMI-1640 medium. […] The cells were again centrifuged and washed in PBS (-) or RPMI-1640 medium and were resuspended in an RPMI-1640 medium so that the medium would contain 2.5×10^8 cells/mL. This suspension served as a “stimulation cell suspension.” Using a 27G needle along with a microsyringe (Hamilton), 20 μL (5×10^6 cells/mouse) of the stimulation cell suspension was subcutaneously injected into the right hind footpad of 7 to 9 week old male C3H/HeN mice (CLEA JAPAN Inc., CHARLES RIVER JAPAN Inc., or JAPAN SLC Inc.). […]

A word on the melting point: it is the temperature, or range, at which the solid turns liquid.

In turn, `Cl.NC(CO)(CO)CCCc1ccc(Sc2cccc(OCc3ccccc3)c2)cc1Cl` [Example 36, 2-amino-2-[4-(3-benzyloxyphenylthio)-2-chlorophenyl]propyl-1,3-propanediol hydrochloride] displayed a melting point of 132 to 133 °C. For the same compound, the “Inhibition (%)” value in data set [1] is 86%. In data set [2] (dose 0.03 mg/kg intraperitoneally once a day for four consecutive days), the “Inhibition (%)” value is 85%.

For `Cl.NC(CO)(CO)CCc1ccc(Sc2cccc(OCc3ccccc3)c2)cc1Cl` [Example 46, 2-amino-2-[4-(3-benzyloxyphenylthio)-2-chlorophenyl]ethyl-1,3-propanediol Hydrochloride], the “Inhibition (%)” value in data set [2] (dose 0.3 mg/kg intraperitoneally once a day for four consecutive days) is 80%.
